Measurements from patent US10011868B2, “Reactivity-dependent and interaction-dependent PCR” (priority 2009, dated 2018).
Where two headings read alike, the source gives them in different places. Numbered stars: 1 amine (or outer) side, 2 acyl side, 3 side chain; on linkers, the order of the positions; unused ones are H or OH. Peptide text beside a SMILES is read from it. CO = O=C([*:1])[*:2]

What was measured:
[1] = target: 68-nt DNA aptamer that binds daunomycin; settings: DNA aptamer and daunomycin; cited from earlier work
[2] = target: T1, trypsin (Bos taurus, UniProt P00760); settings: trypsin and antipain; cited from earlier work
T1 sequence (P00760 24-246): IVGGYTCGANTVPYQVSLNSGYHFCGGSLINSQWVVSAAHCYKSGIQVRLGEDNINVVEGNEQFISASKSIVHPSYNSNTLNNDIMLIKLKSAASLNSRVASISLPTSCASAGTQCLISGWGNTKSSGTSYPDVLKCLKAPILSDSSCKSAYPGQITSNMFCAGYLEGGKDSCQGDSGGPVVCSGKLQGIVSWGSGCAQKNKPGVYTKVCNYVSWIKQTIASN

[3] = target: T1, trypsin; assay: Trypsin inhibition, fluorogenic substrate Z-Arg-AMC (FIG. 25d); type: biochemical, bovine
Description: Conditions were adopted from a previously reported protocol.^17 Trypsin (200 fmol) was diluted in 90 μL PBS and was incubated with various concentrations of antipain, a known inhibitor of tryptic proteolysis, or 2e-antipain. The solution was equilibrated at room temperature for 10 minutes and at 35° C. for 5 minutes before addition of the fluorogenic proteolytic substrate Z-Arg-AMC (Bachem) (10 nmol in 10 μL 50% DMSO) (final volume=100 μL).
Equation Used to Fit Ki from Inhibitory Curves (FIGS. 25a, b, d).
The Ki was determined by fitting the following equation to the plot of normalized activity vs. inhibitor concentration: Vo=c+d(([E]tot+[i]tot+Ki)−sqrt((−[E]tot−[I]tot−Ki)^2−4*[E]tot*[I]tot))/(2*[E]tot), where Vo is initial reaction velocity, [E]tot is total enzyme concentration, [I]rot is total inhibitor concentration; c and d are variable parameters for the maximum Vo and for the difference between the minimum and maximum Vo, respectively.

[4] = target: T2, carbonic anhydrase (Bos taurus, UniProt P00921); assay: Carbonic anhydrase enzymatic activity inhibition, 4-nitrophenyl acetate substrate (FIG. 25a,b); type: biochemical, bovine; settings: 37° C.; read-out: Ki for CA
T2 sequence (P00921 whole entry): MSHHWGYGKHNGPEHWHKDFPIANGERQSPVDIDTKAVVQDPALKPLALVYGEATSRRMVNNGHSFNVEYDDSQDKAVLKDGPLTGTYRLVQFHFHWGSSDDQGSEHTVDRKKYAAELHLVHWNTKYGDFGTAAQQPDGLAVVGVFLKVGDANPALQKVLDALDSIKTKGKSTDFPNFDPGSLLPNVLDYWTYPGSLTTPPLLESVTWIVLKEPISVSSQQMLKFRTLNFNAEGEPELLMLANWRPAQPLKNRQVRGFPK

[5] = target: T3, streptavidin (Streptomyces avidinii, UniProt P22629); assay: ID-PCR model selection, ligand library x target library in one solution (FIG. 22); type: binding; settings: DNA-linked ligand; relative to control lacking proteins; 261 ligand x 259 target sequences
T3 construct: 5'-carboxylate ssDNA oligonucleotide 1a (Cy3-labelled), chemically coupled via NHS ester; purchased New England Biolabs
T3 sequence (P22629 25-183): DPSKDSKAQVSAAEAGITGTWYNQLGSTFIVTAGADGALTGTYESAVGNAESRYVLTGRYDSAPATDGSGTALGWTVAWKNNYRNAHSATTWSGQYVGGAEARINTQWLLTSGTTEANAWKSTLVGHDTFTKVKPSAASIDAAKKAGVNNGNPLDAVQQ
Description: (§1) Finally, we tested the ability of ID-PCR to simultaneously evaluate all possible combinations of multiple ligands and multiple targets in a single solution. […] The negative control ligand and target were conjugated to libraries of 256 different sequence tags. The resulting solution therefore contained equimolar quantities of each of 261 ligand sequences and each of 259 target sequences, collectively representing 67,599 possible ligand-target sequence combinations. A control sample was prepared identically except using DNA not conjugated to any protein targets. Both samples were subjected to ID-PCR followed by high-throughput DNA sequencing.
(§2) A control primer extension reaction was also performed using the same pool of ligand strands, but with a pool of target strands lacking conjugated proteins (1, 1i, 1j, 60 pM each and 1k, 9.8 nM). Adapter sequences required for Illumina sequencing, as well as barcodes identifying the input and selection experiments, were installed by PCR with either Primer C (input control) or Primer D (selection) and Primer E. The appropriate cycle number for each reaction was determined by qPCR evaluation, such that preparative PCR reactions (50 μL total volume) were stopped in the exponential amplification phase in order to minimize dynamic compression during PCR. […]

[6] = target: streptavidin (SA) (Streptomyces avidinii, UniProt P22629); settings: free ligand and streptavidin; cited from earlier work
streptavidin (SA), sequence (P22629 25-183): as above

[7] = target: T4, streptavidin (1a-SA) (Streptomyces avidinii, UniProt P22629); assay: ID-PCR on single target-ligand pair, qPCR threshold cycle (FIG. 20b); type: binding; settings: with 1a-SA, Klenow extension and qPCR
T4 construct: 5'-carboxylate ssDNA oligonucleotide 1a (Cy3-labelled), chemically coupled via NHS ester; purchased New England Biolabs
T4 sequence (P22629 25-183): as above
Description: We investigated whether binding between a small molecule and a protein could replace a covalent linkage in a DNA hairpin and support extension and PCR. […] The target and ligand strands shared a 6-nt complementary region.
An extension mixture consisting of 10×NEB Buffer 2 (2 μL), dNTPs (660 pmol each in 2 μL water), and the target strand (200 fmol in 9 μL PBS) was incubated at 37° C. for 5 minutes. The appropriate ligand strand (200 fmol in 2 μL water) was added and the reaction mixture was incubated at 37° C. for 15 minutes. Klenow fragment exo^− (2.5 U in 5 μL of 1×NEB Buffer 2, New England Biolabs) was added. The primer extension reaction (final volume=20 μL) was incubated at 37° C. for 15 minutes. The polymerase was inactivated by heating to 75° C. for 20 minutes.
For each 25 μL qPCR reaction, 12.5 μL of 2×SYBR Green iQ Supermix (Bio-Rad) was combined with 1 μL of 10 μM Primer A, 1 μL of 10 μM Primer B, and 9.5 μL Milli Q H2O. […] Quantitative PCR was performed using a CFX-96 Real-Time System with a C1000 Thermal Cycler (Bio-Rad). […]
All primer extension and qPCR reactions were performed as described above, except that free ligand (200 pmol in 2 μL 10% DMSO) or DMSO (2 μL of 10% DMSO) was added when appropriate. […] Unless otherwise noted, PCR products were analyzed by PAGE on 10% TBE gels at 200 V for 25 minutes staining with ethidium bromide and imaging on a Chemilmager (AlphaInnotech). […]

[8] = target: T3, streptavidin; assay: Gel shift of 2b-desthiobiotin/streptavidin complex (FIG. 25c); type: binding; settings: duplex 10 nM, read-out: apparent Kd for streptavidin
Description: The DNA-ligand conjugate 2b-desthiobiotin was hybridized to a complementary 20-mer carrying a Cy3 label at the 3′-end. The resulting duplex (10 nM) was incubated with increasing concentrations of streptavidin in binding buffer (145 mM NaCl, 10 mM Tris/HCl, 10 mM MgCl2, 7 mM Na2PO4, 1.9 mM KCl, 1 mM dithiothreitol, pH 7.4), for 1 h and analyzed on a 20% TBE polyacrylamide gel. The appearance of a higher molecular weight band indicated formation of a streptavidin-2b-desthiobiotin complex. The apparent Kd was determined from the streptavidin concentration for which the bands corresponding to free DNA and to the complex were of approximately equal intensity.

[9] = target: T2, carbonic anhydrase; assay: ID-PCR model selection, ligand library x target library in one solution (FIG. 22); type: binding, bovine; settings: DNA-linked ligand; relative to control lacking proteins; 261 ligand x 259 target sequences
Description: as §1, §2

[10] = target: carbonic anhydrase II (CA) (Bos taurus, UniProt P00921); settings: cited from earlier work
carbonic anhydrase II (CA), sequence (P00921 whole entry): as the sequence (P00921 whole entry) above

COc1cccc2c1C(=O)c1c(O)c3c(c(O)c1C2=O)C[C@@](O)(C(C)=O)C[C@@H]3O[C@H]1C[C@H](N)[C@H](O)[C@H](C)O1 [daunomycin]
Kd [1]: 0.272 µM

CC(C)[C@H](NC(=O)[C@H](CCCNC(=N)N)NC(=O)N[C@@H](Cc1ccccc1)C(=O)O)C(=O)N[C@H](C=O)CCCNC(=N)N [antipain] ({Phe-CO}-Arg-Val-Arg-aldehyde)
Ki [2]: 0.1 µM
Ki [3]: 0.0395 µM

2s-GLCBS: GLCBS-DNA conjugate (SEQ 78) (DNA TGGATCGTGATGACTGTCCCGACAAGGATCCGTATCTCACT; DNA, backbone and methylation of C not given here; GLCBS conjugated at 3' end, further chemistry not fully specified)
Ki [4]: 0.38 µM

O=C(O)CCCC[C@@H]1SC[C@@H]2NC(=O)N[C@@H]21 [biotin]
Enrichment Factor [5]: 860

C[C@@H]1NC(=O)N[C@@H]1CCCCCC(=O)O [desthiobiotin]
Enrichment Factor [5]: 3078
Kd [6]: 0.002 µM

2b-desthiobiotin: ligand strand 2 conjugated to desthiobiotin (SEQ 57) (TGGATCGTGATGACTGTCCCGACAAGCATACGTATCTCACT; desthiobiotin conjugated, position not given here)
amplification efficiency in ID-PCR [7]: comparable to that of 2a-biotin
Kd [8]: 0.008 µM

Gly-Leu-CBS [GLCBS]
Enrichment Factor [9]: 225
Ki [4]: 0.47 µM
Ki ([10]; FIG. 20 legend): 0.009 µM
Kd ([10]; text b276): 0.009 µM
